# Source: patent US10485785B2, “Method for producing fine powder and the fine powder produced by the same” (Moriroku Chemicals Company, Ltd., priority 2012, dated 2019)
# How the values were obtained:
# Format in all cases: physicochemical
# [1] = particle size distribution by laser diffraction (dry and wet method)
# Experimental: The pulverized particles were dispersed by compressed air (0.4 MPa) and then, the dry particle size distribution was measured by a laser diffraction apparatus for measuring particle size distribution (LMS-30, SEISHIN ENTERPRISE CO., LTD.). On the other hand, the pulverized particles were dispersed in purified water by ultrasonic dispersion (30 seconds) and then, the wet particle size distribution was measured by a laser diffraction apparatus for measuring particle size distribution (SALD-2100, SHIMADZU CORPORATION). (3) Crystalline Properties The crystalline states of the bulk powder and the pulverized particles were measured by a X-ray powder diffraction apparatus (RAD-2VC, Rigaku Corporation) and a differential scanning calorimeters (DSC-60, SHIMADZU CORPORATION). […] As stated above, the dry method particle size distribution was measured by the laser diffraction scattering method (Dry method), while the wet method particle size distribution was measured by the laser diffraction method (Wet method). FIG. 32 represents the particle distribution of the bulk powder of phenytoin (OriB), the particle distribution of the phenytoin (Jet) pulverized by the dry method jet mill, and the particle distribution of the phenytoin (LN2) pulverized by the ultra low temperature medium grinding apparatus (LN2 bead mill) according to the present invention, wherein all the particle distributions were the results measured by the aforementioned dry method (Dry method). FIG. 33 represents the particle distribution of the bulk powder of phenytoin (OriB), the particle distribution of the phenytoin (Jet) pulverized by the dry method jet mill, and the particle distribution of the phenytoin (LN2) pulverized by the ultra low temperature medium grinding apparatus (LN2 bead mill) according to the present invention, wherein all the particle distribution were the results measured by the aforementioned wet method (Wet method). […]
# [2] = crystalline properties by powder X-ray diffractometry and differential scanning calorimetry
# Experimental: The pulverized particles were dispersed by compressed air (0.4 MPa) and then, the dry particle size distribution was measured by a laser diffraction apparatus for measuring particle size distribution (LMS-30, SEISHIN ENTERPRISE CO., LTD.). On the other hand, the pulverized particles were dispersed in purified water by ultrasonic dispersion (30 seconds) and then, the wet particle size distribution was measured by a laser diffraction apparatus for measuring particle size distribution (SALD-2100, SHIMADZU CORPORATION). (3) Crystalline Properties The crystalline states of the bulk powder and the pulverized particles were measured by a X-ray powder diffraction apparatus (RAD-2VC, Rigaku Corporation) and a differential scanning calorimeters (DSC-60, SHIMADZU CORPORATION). […] FIG. 34 represents the results of powder X-ray diffractometry (XRPD) of the original bulk of phenytoin (OriB), the phenytoin (Jet) pulverized by the dry method jet mill, and the phenytoin (LN2) pulverized by the ultra low temperature medium grinding apparatus (LN2 bead mill) according to the present invention, which were measured by a powder X-ray diffractometry device (RAD-2VC, Rigaku Corporation). […]
# [3] = dissolution test, pharmacopoeia second law (paddle method); details: 66.7 mg sample suspended in water with 0.1%(w/v) Tween80, 900 mL test liquid, 75 rpm
# Experimental: In order to verify the degree of improvement of solubility of the concurrently pulverized materials, which was obtained by concurrently pulverizing the test compound (phenytoin) made by example 5 and the additive (Hypromellose-Acetate-Succinate (HPMCAS)), the dissolution test was carried out as follows. […] Then the suspension was put into a 900 mL test liquid (50 Mm phosphate buffer solution, pH6.8) and examined under the condition of 75 rpm in compliance with the pharmacopoeia second law (paddle method). A sample consisting of only a compound (phenytoin) to be pulverized was individually pulverized under the conditions shown in Example 5 to obtain a pulverized material, which was used to carry out the dissolution test as follows. A 66.7 mg sample of the pulverized material was suspended in the water, which contains a 0.1%(w/v) Tween80, to obtain a suspension. Then the suspension was put into the 900 mL test liquid and examined under the condition of 75 rpm in compliance with the pharmacopoeia second law (paddle method). […] Before the dissolution test of reference example 1 was carried out, the pulverized material prepared in reference example 1 was mixed with commercially available additives (lactose and L-HPC) in a vessel by hand. Then, the dissolution test was performed as for a mixture of the pulverized material and the additives.
# [4] = observation by scanning electron microscope (SEM); details: pulverized by the LN2 bead mill, SEM FIG. 2(B)
# Source text: The exterior appearance of pulverized particles on which platinum is deposited was observed by a scanning electron microscope (JSM-6060, JEOL LTD.).
structure (smiles),measurement,setting,value
"O=C1NC(=O)C(c2ccccc2)(c2ccccc2)N1 [phenytoin (LN2), phenytoin]",rate of submicron size particles relative to particles pulverized by the dry method,[1],three and a half times
same,percentage of the mass consisting of particles of 1 μm or below (rate of submicron size particles),[1]; measured up to,up to 32%
same,crystalline transformation / crystalline descent,"[2]; XRPD and DSC, before and after pulverization",crystalline descent was not found
"O=C1NC(=O)C(c2ccccc2)(c2ccccc2)N1 [phenytoin (Jet), phenytoin]",degree of crystallinity,"[2]; from ΔH value versus original bulk, DSC",81%
"O=C1NC(=O)C(c2ccccc2)(c2ccccc2)N1 [Reference example 1, phenytoin]",particle diameter after individual pulverization,[1]; conditions of Example 5,≤ 0.1 μm
same,solubility of the pulverized particles in dissolution test,[3],"not improved, or rather became worse"
O=C1NC(=O)C(c2ccccc2)(c2ccccc2)N1 [phenytoin],dimension of the majority of the particles,[4],≤ 1 μm
